In patent publication US9961896B2, “Cleaning liquid” (priority 2013, dated 2018):

Tests used:
Assay in all cases: EN 1276 bactericidal activity
Assay type in all cases: cell-based
Conditions in all cases: diluted to 1:20 v/v; 5 minutes at 20° C.; dirty conditions
[1] = system: Pseudomonas aeruginosa (NCI MB 10421)
[2] = system: Escherichia coli (NCTC 10418)
[3] = system: Staphylococcus aureus (NCTC 10788)
[4] = system: Enterococcus hirae (NCIMB 8192)

Measured: passes the requirements of EN 1276 for bactericidal activity

CCCCCCCCCC[N+](C)(C)CCCCCCCCCC.[Cl-] [Acticide DDQ50, Didecyl Dimethyl Ammonium Chloride]
does not pass: all assays above

O=[N+]([O-])C(Br)(CO)CO [Acticide L, Bronopol]
does not pass: all assays above

Benzalkonium chloride [Acticide BAC50M]
does not pass: all assays above

Cc1cc(O)ccc1Cl [Acticide PCMC, P-chloro-m-cresol]
does not pass: all assays above
